assay: Water Miscibility Test; format: physicochemical; settings: 0.5 g ionic liquid and 4.5 g de-ionized water, sonicated 1.5 hours; miscible if homogenous transparent system within 15 minutes of standing
Experimental: “Hydrophilic ionic compound” or “water miscible ionic compound” as used herein refers to ionic compound that is partially or wholly miscible with water, i.e. it is capable of forming a visually homogenous or transparent mixture with water according to the Water Miscibility Test described herein. The water miscibility of an ionic liquid is measured by the following water miscibility test. A mixture of 0.5 g ionic liquid and 4.5 g de-ionized water are sonicated in a Bransonic Ultrasonic Bath (model # 1210R-MTH, 50/60 Hz, 117 volts, 1.3 AMPS) according to manufacture's specifications for 1.5 hours. Thereafter, if a homogenous transparent system results within 15 minutes of standing without agitation, then the ionic liquid is water miscible.

Row | Water Miscible? | Substance
1 | No | Tetraoctyl Ammonium Dodecylbenzenesulfonate [Example 3]
2 | No | Triisooctylmethyl Ammonium Mid-Chain Branched Dodecylsulfate [Example 2]

Row | Substance | Water Miscible?
3 | Tetraoctyl Ammonium Mid-Chain Branched Dodecylsulfate [Example 1] | No

Source: patent publication US7786064B1, “Ionic liquids derived from functionalized anionic surfactants” (The Procter & Gamble Company, priority 2004, dated 2010)
